The results in this text go back to ChEMBL document CHEMBL5131436, “Dual Sigma-1 receptor antagonists and hydrogen sulfide-releasing compounds for pain treatment: Design, synthesis, and pharmacological evaluation” (Eur J Med Chem, 2022).

≈ marks a conversion by molar mass, not a printed value. Calls of active or inactive are those of the source. No cut-off for these calls is given here.

Series [1] concerns Mus musculus. As to the kind of experiment: Antinociceptive activity in sc dosed wild type CD1 mouse model of capsaicin-induced mechanical hypersensitivity assessed as reduction in mechanical hypersensitivity. The format is functional.
Series [2] is described as follows: Induction of H2S release in PBS buffer at 100 uM in presence of Washington State Probe-1 by spectrofluorimeter assay. The series is classed as functional.
For series [3], the system named is Mus musculus. As to the kind of experiment: Analgesic activity in wild type CD1 mouse model of capsaicin-induced mechanical hypersensitivity assessed as reduction in mechanical hypersensitivity at 5 mg/kg, sc in presence of sigma-1 receptor antagonist BD-1063 at 5 mg/kg. The series is classed as functional.
Series [4] in a line: Induction of motor coordination impairment in wild type CD1 mouse assessed as latency to fall at 5 mg/kg, sc in presence of sigma-1 receptor […] BD-1063 at 5 mg/kg, sc measured upto 4 hrs by rotarod test. The series is classed as toxicity, organism-based. The note with it: in vivo. For orientation: In the rotarod test animals must keep their balance on a rotating rod.
Series [5] can be described thus: Induction of H2S release in PBS buffer incubated for 1 hrs in presence of Washington State Probe-1 by spectrofluorimeter assay. The format is functional.
In a further series the target is Mu-type opioid receptor (Rattus norvegicus, UniProt P33535). The experiment in a line: Displacement of [3H]-DAMGO from Sprague-Dawley rat brain membrane mu opioid receptor incubated for 45 mins by liquid scintillation counting analysis. The series is classed as cell membranes. Background: Displacement assays read how much labelled ligand stays bound in the presence of the test substance.
Sequence of Mu-type opioid receptor (P33535 whole entry): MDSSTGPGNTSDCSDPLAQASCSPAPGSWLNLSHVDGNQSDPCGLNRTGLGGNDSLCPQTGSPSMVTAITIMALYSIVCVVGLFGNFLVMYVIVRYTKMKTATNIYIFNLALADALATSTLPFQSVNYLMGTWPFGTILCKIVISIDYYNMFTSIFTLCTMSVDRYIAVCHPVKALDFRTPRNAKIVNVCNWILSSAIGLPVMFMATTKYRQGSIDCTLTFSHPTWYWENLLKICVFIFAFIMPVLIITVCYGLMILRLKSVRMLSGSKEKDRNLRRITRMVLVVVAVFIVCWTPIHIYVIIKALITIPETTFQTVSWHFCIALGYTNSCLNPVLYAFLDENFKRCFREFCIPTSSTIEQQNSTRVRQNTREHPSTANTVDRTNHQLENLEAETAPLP

The target of series [6] is Kappa-type opioid receptor (Cavia porcellus, UniProt P41144). The experiment in a line: Displacement of [3H]-U69593 from Dunkin-Hartley guinea pig brain membrane kappa opioid receptor incubated for 30 mins by liquid scintillation counting analysis. The series is classed as cell membranes.
Sequence of Kappa-type opioid receptor (P41144 whole entry): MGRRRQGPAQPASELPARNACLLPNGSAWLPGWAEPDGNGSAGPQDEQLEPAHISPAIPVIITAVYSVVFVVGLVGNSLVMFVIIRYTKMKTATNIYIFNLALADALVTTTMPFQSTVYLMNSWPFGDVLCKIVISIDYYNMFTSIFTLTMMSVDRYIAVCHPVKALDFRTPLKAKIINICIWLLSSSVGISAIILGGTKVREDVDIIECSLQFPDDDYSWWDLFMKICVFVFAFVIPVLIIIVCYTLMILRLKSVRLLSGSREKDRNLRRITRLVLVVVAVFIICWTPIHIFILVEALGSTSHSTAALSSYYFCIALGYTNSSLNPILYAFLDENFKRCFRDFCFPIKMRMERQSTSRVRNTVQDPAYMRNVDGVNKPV
The subject of series [7] is Mus musculus. The experiment in a line: Analgesic activity in wild type CD1 mouse model of capsaicin-induced mechanical hypersensitivity assessed as reduction in mechanical hypersensitivity at 5 mg/kg, sc in presence of BD-1063 at 5 mg/kg and PRE-084 at 32 mg/kg. The format is functional, organism-based.
For series [8], the target named is Delta-type opioid receptor (Rattus norvegicus, UniProt P33533). As to the kind of experiment: Displacement of [3H]-(2-D-Ala)[Tyrosy1-3,5-]-DELTORPHIN II from Sprague-Dawley rat brain membrane delta opioid receptor incubated for 45 mins by liquid scintillation counting analysis. The format is cell membranes.
Sequence of Delta-type opioid receptor (P33533 whole entry): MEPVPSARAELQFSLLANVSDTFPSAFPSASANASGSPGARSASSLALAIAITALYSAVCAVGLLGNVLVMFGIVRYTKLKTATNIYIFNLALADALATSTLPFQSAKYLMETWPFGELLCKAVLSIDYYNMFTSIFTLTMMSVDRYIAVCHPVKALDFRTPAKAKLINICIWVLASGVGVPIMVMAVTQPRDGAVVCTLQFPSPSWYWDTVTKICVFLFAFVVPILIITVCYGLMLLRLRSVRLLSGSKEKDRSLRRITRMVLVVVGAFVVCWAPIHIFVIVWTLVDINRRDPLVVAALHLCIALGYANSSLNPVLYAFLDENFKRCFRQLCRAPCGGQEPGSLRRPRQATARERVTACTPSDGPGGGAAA
For series [9], the system named is Mus musculus. The experiment in a line: Antinociceptive activity in wild type CD1 mouse model of capsaicin-induced mechanical hypersensitivity assessed as reduction in mechanical hypersensitivity at 10 mg/kg, sc in presence of Sigma 1 receptor agonist PRE-084. The format is functional, organism-based.
Series [10] has as its target T1, Sigma intracellular receptor 2 (Rattus norvegicus, UniProt Q5U3Y7).
T1 sequence (Q5U3Y7 whole entry): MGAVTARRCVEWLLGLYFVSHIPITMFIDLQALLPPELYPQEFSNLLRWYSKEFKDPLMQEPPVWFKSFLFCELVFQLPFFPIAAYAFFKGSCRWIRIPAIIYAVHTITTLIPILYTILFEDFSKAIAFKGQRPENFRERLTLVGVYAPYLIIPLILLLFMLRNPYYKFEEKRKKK
As to the kind of experiment: biochemical.

Series [11] concerns the target T2, Sigma non-opioid intracellular receptor 1 (Cavia porcellus, UniProt Q60492). The experiment in a line: biochemical.
A short description of series [12]: Stability of compound in phosphate buffer at pH 7.4 assessed as half life by UHPLC-PDA analysis. The format is physicochemical.
The test system of series [13] is Mus musculus. As to the kind of experiment: Analgesic activity in wild type CD1 mouse model of capsaicin-induced mechanical hypersensitivity assessed as reduction of capsaicin-induced mechanical hypersensitivity at 40 mg/kg, sc in presence of sigma1 receptor agonist PRE-084. The series is classed as functional, organism-based.
Series [14] has as its target Voltage-gated inwardly rectifying potassium channel KCNH2 (Homo sapiens, UniProt Q12809). As to the kind of experiment: Inhibition of human ERG potassium channel expressed in CHO-K1 cells by Qube-automated patch clamp assay. The series is classed as toxicity, cell-based. On the technique in general: In patch-clamp work, channel activity is measured electrically.
The target in the next series is hERG (KCNH2) (Homo sapiens, UniProt Q12809). As to the kind of experiment: Inhibition of human ERG potassium channel expressed in CHO-K1 cells at 10 uM by Qube-automated patch clamp assay relative to control. The series is classed as toxicity, cell-based. The conditions noted are these: CHO-K1 cells expressing human ERG potassium channel.
Sequence of hERG (KCNH2) (Q12809 whole entry): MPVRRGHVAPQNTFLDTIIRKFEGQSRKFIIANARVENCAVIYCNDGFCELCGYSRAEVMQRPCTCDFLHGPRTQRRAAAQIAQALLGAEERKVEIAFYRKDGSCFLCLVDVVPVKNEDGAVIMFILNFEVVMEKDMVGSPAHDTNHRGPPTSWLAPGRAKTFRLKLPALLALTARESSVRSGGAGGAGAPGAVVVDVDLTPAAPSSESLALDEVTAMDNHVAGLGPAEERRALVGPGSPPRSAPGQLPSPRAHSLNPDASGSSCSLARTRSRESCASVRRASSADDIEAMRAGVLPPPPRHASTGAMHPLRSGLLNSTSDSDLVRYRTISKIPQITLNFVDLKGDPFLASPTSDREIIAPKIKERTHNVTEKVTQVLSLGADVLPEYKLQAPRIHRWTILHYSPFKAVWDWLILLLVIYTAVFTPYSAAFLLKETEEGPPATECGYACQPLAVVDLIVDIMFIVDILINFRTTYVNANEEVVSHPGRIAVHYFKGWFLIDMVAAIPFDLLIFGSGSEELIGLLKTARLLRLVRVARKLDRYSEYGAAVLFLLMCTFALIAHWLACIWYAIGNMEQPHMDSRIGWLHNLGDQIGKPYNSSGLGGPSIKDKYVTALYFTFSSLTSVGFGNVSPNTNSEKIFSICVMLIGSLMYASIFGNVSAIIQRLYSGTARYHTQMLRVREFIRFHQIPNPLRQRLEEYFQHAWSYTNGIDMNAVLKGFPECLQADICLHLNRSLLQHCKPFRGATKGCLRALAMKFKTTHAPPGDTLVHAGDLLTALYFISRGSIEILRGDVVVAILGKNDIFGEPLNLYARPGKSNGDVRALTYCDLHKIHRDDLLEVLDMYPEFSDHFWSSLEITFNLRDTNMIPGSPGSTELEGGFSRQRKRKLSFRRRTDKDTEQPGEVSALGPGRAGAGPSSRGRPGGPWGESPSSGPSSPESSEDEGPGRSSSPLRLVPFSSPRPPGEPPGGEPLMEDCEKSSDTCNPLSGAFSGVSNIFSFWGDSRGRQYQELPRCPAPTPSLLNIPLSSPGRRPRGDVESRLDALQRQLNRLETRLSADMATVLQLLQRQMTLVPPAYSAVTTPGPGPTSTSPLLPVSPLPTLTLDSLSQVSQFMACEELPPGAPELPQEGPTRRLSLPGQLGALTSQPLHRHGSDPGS
A short description of series [15]: Induction of motor coordination impairment in wild type CD1 mouse assessed as latency to fall at 40 mg/kg, sc measured upto 4 hrs by rotarod test. The series is classed as toxicity, organism-based. The conditions noted are these: in vivo.
Series [16] in a line: Stability of compound in saline solution assessed as half life by UHPLC-PDA analysis. The series is classed as physicochemical.
In series [17] the test system is Mus musculus. The experiment in a line: Analgesic activity in wild type CD1 mouse model of capsaicin-induced mechanical hypersensitivity assessed as reduction of capsaicin-induced mechanical hypersensitivity at 10 to 40 mg/kg, sc. The conditions noted are these: dose 10-40 mg/kg. The format is functional, organism-based.
Series [18] can be described thus: Induction of hypotension in wild type CD1 mouse assessed as mean arterial blood pressure at 30 to 40 mg/kg, sc incubated upto 45 mins by tail-cuff plethysmography. The format is toxicity, organism-based. The conditions noted are these: in vivo, 0.75 h, dose 30-40 mg/kg.
Series [19] in a line: Aqueous solubility of compound at 5 mg measured for 24 hrs by UHPLC-PDA analysis. The note with it: water. The series is classed as physicochemical.
In series [20] the target is T2, Sigma non-opioid intracellular receptor 1.
Series [21] deals with Sigma non-opioid intracellular receptor 1 (Homo sapiens, UniProt Q99720). As to the kind of experiment: Displacement of [3H]-pentazocine from Sigma 1-receptor (unknown origin).
Sequence of Sigma non-opioid intracellular receptor 1 (Homo sapiens, UniProt Q99720) (Q99720 whole entry): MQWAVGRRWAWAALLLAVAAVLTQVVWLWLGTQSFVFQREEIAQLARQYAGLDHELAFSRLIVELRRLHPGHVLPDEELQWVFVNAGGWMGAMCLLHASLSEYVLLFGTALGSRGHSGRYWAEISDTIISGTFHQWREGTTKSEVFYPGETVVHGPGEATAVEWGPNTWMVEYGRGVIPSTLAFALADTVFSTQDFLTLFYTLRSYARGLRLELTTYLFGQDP
In series [22] the target is Sigma intracellular receptor 2 (Homo sapiens, UniProt Q5BJF2). As to the kind of experiment: Displacement of [3H]-di-o-tolylguanidine from Sigma 2-receptor (unknown origin).
Sequence of Sigma intracellular receptor 2 (Homo sapiens, UniProt Q5BJF2) (Q5BJF2 whole entry): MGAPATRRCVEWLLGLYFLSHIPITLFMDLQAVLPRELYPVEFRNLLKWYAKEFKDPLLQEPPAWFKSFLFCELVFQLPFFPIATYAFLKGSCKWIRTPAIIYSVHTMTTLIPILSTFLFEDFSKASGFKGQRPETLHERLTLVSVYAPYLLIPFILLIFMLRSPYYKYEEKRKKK

T2 sequence (Q60492 whole entry): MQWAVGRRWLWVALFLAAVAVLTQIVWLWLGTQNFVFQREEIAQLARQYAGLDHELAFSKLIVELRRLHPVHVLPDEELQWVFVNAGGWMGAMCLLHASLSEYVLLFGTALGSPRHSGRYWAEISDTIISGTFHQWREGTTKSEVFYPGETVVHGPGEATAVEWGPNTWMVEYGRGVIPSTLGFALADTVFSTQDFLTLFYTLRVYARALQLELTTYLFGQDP
Sequence of Voltage-gated inwardly rectifying potassium channel KCNH2 (Q12809 whole entry): as the sequence (Q12809 whole entry) above

On to `NC(=S)c1ccc(C(=O)O)cc1`, for which the figures for the ED50 in the series with Mus musculus [1] and in the series with Mus musculus [3] were 6.12 mg/kg and 7.52 mg/kg, respectively. The result (in series [2]; in the series on Mus musculus [7]; with Mus musculus [9]) was Active. In addition, the ED75 with Mus musculus [3] is 9.75 mg/kg. Also, the ED90 in the series on Mus musculus [3] came to 12.6 mg/kg. The values for the Activity result in series [4] and in series [5] were “Non-Toxic” and 34.4 µM, respectively. Also, the Ki (at Mu-type opioid receptor; in series [6]; in series [8]) was greater than 10000 nM in each case.
Consider `NC(=O)c1ccc(C(=O)OCCCCN2CCC(O)(c3ccc(Cl)cc3)CC2)cc1`, for which the Ki is greater than 10000 nM at Mu-type opioid receptor; 933 nM in [10]; 126 nM in series [11]; greater than 10000 nM in series [6]; greater than 10000 nM in [8].
For the compound `NC(=O)c1ccc(C(=O)NC2CCN(Cc3ccccc3)CC2)cc1`, the Ki (at Mu-type opioid receptor; in series [6]; in series [8]) was greater than 10000 nM each time.
On to `NC(=S)c1ccc(C(=O)NC2CCN(Cc3ccccc3)CC2)cc1`, for which the half-life in series [12] turned out to be 1.55 h; in series [16], 4.17 h. Besides, the outcome with Mus musculus [13] and in the series on Mus musculus [17] was Active. Also, in series [14], inhibition was half-maximal at 6800 nM (IC50). The compound also came in with an inhibition at 10 µM against hERG (KCNH2) of 60%. Also, the values for the Activity entry in series [15], in series [5] and in [18] were “Non-Toxic”, 38.4 µM and “Non-Toxic”, respectively. The Ki (at Mu-type opioid receptor; in series [6]; in series [8]) was greater than 10000 nM in each case. The compound further came in with a solubility at 24 h in [19] of 1.25 µM (≈ 0.442 µg/mL).
With `Oc1ccc2c3c1O[C@H]1c4[nH]c5ccccc5c4C[C@@]4(O)[C@@H](C2)N(CC2CC2)CC[C@]314` [NALTRINDOLE], the Ki in series [8] came to 2.53 nM.
Consider `NC(=S)c1ccc(C(=O)OC(CCCN2CCC(O)(c3ccc(Cl)cc3)CC2)c2ccc(F)cc2)cc1` (stereo not drawn), for which the Activity in series [5] was 51.7 µM. For the same compound, the Ki was 1460 nM at Mu-type opioid receptor; 311 nM in [10]; 156 nM in [11]; greater than 10000 nM in series [6]; greater than 10000 nM in [8].
As to `C[C@@H]1CCO[C@H]2Cn3cc(C(=O)NCc4ccc(F)cc4F)c(=O)c(O)c3C(=O)N12` [DOLUTEGRAVIR], the Ki in [10] was 18 nM; in series [11], 124 nM.
`NC(=S)c1ccc(C(=O)N2CCN(Cc3ccccc3)CC2)cc1`: in the series on Mus musculus [13], the result was Active. Also, the Activity was 46.7 µM in series [5] and “Dde” with Mus musculus [17] (DDE = dose-dependent effect). Further, the Ki at Mu-type opioid receptor is greater than 10000 nM; in [10], greater than 10000 nM; in series [11] it was 668 nM; in series [6], greater than 10000 nM; in [8] it was greater than 10000 nM.
On to `NC(=S)c1ccc(C(=O)OCCCCN2CCC(O)(c3ccc(Cl)cc3)CC2)cc1`, for which the Activity in [5] turned out to be 41.8 µM. Also, the Ki at Mu-type opioid receptor is greater than 10000 nM; in series [10], 266 nM; in series [11] it was 58 nM; in [6], greater than 10000 nM; in [8], greater than 10000 nM.
Turning to `CN1CCN(CCc2ccc(Cl)c(Cl)c2)CC1`, the ED50 in the series with Mus musculus [1] worked out at 10.3 mg/kg. The same compound gave a Ki in series [20] of 14 nM.
Turning to `NC(=O)c1ccc(C(=O)O)cc1`, the Ki (at Mu-type opioid receptor; in [10]; in [11]; in series [6]; in series [8]) was greater than 10000 nM in each case.
For `NC(=O)c1ccc(C(=O)OC(CCCN2CCC(O)(c3ccc(Cl)cc3)CC2)c2ccc(F)cc2)cc1` (stereo not drawn), the Ki at Mu-type opioid receptor is 817 nM; in [10] it was 618 nM; in series [11], 173 nM; in series [6] it was greater than 10000 nM; in [8], greater than 10000 nM.
As for `O=C(NC1CCN(Cc2ccccc2)CC1)c1ccc(F)cc1`, the values for the Ki in series [21], in series [22] and in series [11] were 6 nM, 190 nM and 6 nM, respectively.
With `NC(=O)c1ccc(C(=O)N2CCN(Cc3ccccc3)CC2)cc1`, the outcome in the series with Mus musculus [13] and with Mus musculus [17] was Active. Also, the Ki at Mu-type opioid receptor was 2550 nM; in series [10], greater than 10000 nM; in [11], greater than 5000 nM; in series [6], greater than 10000 nM; in series [8], greater than 10000 nM.

As usually defined, the ED50 is the dose that gives a 50% effect, or the effect in half of the subjects. As a reminder, the Ki is the dissociation constant of the complex between target and ligand, obtained from inhibition or displacement. Higher therefore signals weaker binding. What is called half-life is the time in which the quantity being followed falls by half. The IC50 is the concentration needed to halve the response being measured. A lower IC50 goes with greater potency. As a reminder, the inhibition is the change of the read-out against control, counted positive when it falls. Low values mean a weak effect, high ones a strong effect. Broadly, the solubility is the concentration that dissolves in the medium under given conditions. Read a high solubility as much dissolved substance.
